The results in this text go back to patent publication US20230357765A1, “USE OF LONG NON-CODING RNAS IN MEDULLOBLASTOMA” (THE JOHNS HOPKINS UNIVERSITY, priority 2020, published 2023).

l = locked nucleic acid (LNA); d = 2'-deoxy (DNA)

Data set [1] relates to lnc-HLX-2-7. The data set is described as follows: ASO knockdown of lnc-HLX-2-7, expression by qRT-PCR. The following applies: D425 Med and MED211 cells; 50 nM ASO, Lipofectamine 3000; compared with ASO-Luc; P < 0.01. The data set is classed as cell-based, human. The method, then:
FIGS. 48A-48C. Confirmation of ASO design and knockdown effect of lnc-HLX-2-7. (FIG. 48A) Diagram showing the sites targeted by each ASO. (FIGS. 48B-48C) Expression level of lnc-HLX-2-7in D425 Med (FIG. 48B) and MED211 (FIG. 48C) cells treated with ASO against the indicated genes on the x-axis. ASOs were transfected at 50 nM for 72 h using Lipofectamine 3000 (Thermo Fisher Scientific, Waltham MA). The efficiency was determined by qRT-PCR. Relative expression level to luciferase (Luc) gene is indicated on the y-axis. *p<0.01, Kruskal-Wallis analysis.
(§1) Quantitative Real-Time PCR. Total RNA was purified using the Direct-zol RNA Miniprep kit (Zymo Research). To obtain RNA from xenografts, tumor tissues were pulverized and then used for purification. Quantitative PCR was carried out using SYBR Green mRNA assays as previously described.^8 Primer sequences are listed in Tables 8-9 and Supplementary Table 2 (available online).
Antisense Oligonucleotides. Lnc-HLX-2-7 Antisense oligonucleotides (ASOs) were designed using the Integrated DNA Technologies (IDT) Antisense Design Tool (IDT). ASO knockdowns were performed with 50 nM (final concentration) locked nucleic acid (LNA) GapmeRs transfected with Lipofectamine 3000 (Thermo Fisher Scientific). All ASOs were modified with phosphorothioate (PS) linkages. […]

Data set [2] has as its system D425 Med and MED211 MB cells. The data set is described as follows: Cell proliferation assay, living cells counted by trypan blue staining. In kind it is cell-based, human. The method, then: (§2) Cell Culture. Cell lines were authenticated using single tandem repeat profiling. D425 Med cells were cultured in DMEM/ F12 with 10% serum and 1% glutamate/penicillin/streptomycin. MED211 cells were cultured in medium composed of 30% Ham’s F12/70% DMEM, 1% antibiotic antimycotic, 20% B27 supplement, 5 µg/mL heparin, 20 ng/mL epidermal growth factor (EGF), and 20 ng/mL fibroblast growth factor 2. DAOY cells were cultured in DMEM with 10% serum and 1% glutamate/penicillin/streptomycin. All cells were grown in a humidified incubator at 37° C., 5% CO2. For blocking of bromodomain and extraterminal domain family (BET) bromodomain protein in D425 Med and MED211 cells, Jun Qi 1 (JQ1) (SML1524-5MG, Sigma Aldrich) was added, and the medium was changed every other day.
Cell Proliferation, Apoptosis, and 3D Colony Formation Assays. Cells were plated in 96-well plates at 5 × 10^3 cells per well in triplicate. After 72 hours of ASO or siRNA transfection, living cells were counted by trypan blue staining. Apoptotic cells were analyzed using a GloMax luminometer (Promega) with conditions optimized for the Caspase-Glo 3/7 Assay. […] Colony number was determined using the EVE cell counter (Nano Entek), and staining intensity was analyzed using ImageJ software.

For data set [3], the system named is D425 Med and MED211 MB cells. The data set is described as follows: Apoptosis assay (Caspase-Glo 3/7). The settings on record: 72 hours after ASO transfection, P < 0.01. In kind it is cell-based, human. The method, then:
Cell Proliferation, Apoptosis, and 3D Colony Formation Assays. Cells were plated in 96-well plates at 5 × 10^3 cells per well in triplicate. After 72 hours of ASO or siRNA transfection, living cells were counted by trypan blue staining. Apoptotic cells were analyzed using a GloMax luminometer (Promega) with conditions optimized for the Caspase-Glo 3/7 Assay. For the 3D colony formation assay, cells were seeded in 24-well plates at a density of 1 × 10^2 cells/well and were stained with crystal violet solution approximately 14 days later. Colony number was determined using the EVE cell counter (Nano Entek), and staining intensity was analyzed using ImageJ software.

In the next data set the test system is HLX. The data set is described as follows: HLX expression after ASO treatment, qRT-PCR. In kind it is cell-based, human. The settings on record: D425 Med and MED211 cells treated with ASO.
Source text: FIG. 8. lnc-HLX-2-7regulates the expression of HLX coding gene. Expression levels of HLX in D425 Med and MED211 cells treated with ASO against the indicated genes in the x-axis. Relative expression level to mock is indicated in the y-axis. *p<0.01, Kruskal-Wallis analysis.
as §1
Antisense Oligonucleotides. Lnc-HLX-2-7 Antisense oligonucleotides (ASOs) were designed using the Integrated DNA Technologies (IDT) Antisense Design Tool (IDT). ASO knockdowns were performed with 50 nM (final concentration) locked nucleic acid (LNA) GapmeRs transfected with Lipofectamine 3000 (Thermo Fisher Scientific). All ASOs were modified with phosphorothioate (PS) linkages.

A further data set has as its system MYC. The data set is described as follows: MYC expression in JQ1-treated cells, qRT-PCR. In kind it is cell-based, human. The following applies: D425 Med and MED211 cells; JQ1 100 or 300 nM; relative to DMSO. The method, then: as §2, §1
(§3) JQ1 Regulates lnc-HLX-2-7via MYC. […] In addition, downregulation of lnc-HLX-2-7 by JQ1 was also confirmed in vivo (FIGS. 10).

The subject of data set [4] is lnc-HLX-2-7. The data set can be described thus: lnc-HLX-2-7 expression in JQ1-treated cells, qRT-PCR. The data set is classed as cell-based, human. The settings on record: D425 Med and MED211 cells; JQ1 100 or 300 nM; relative to DMSO. The method, then:
as §2, §1, §3

The subject of data set [5] is D425 Med and MED211 intracranial xenografts. The data set can be described thus: Intracranial MB xenografts treated with JQ1, bioluminescence imaging and qPCR of tumors. In kind it is in vivo, NOD-SCID mice. The following applies: JQ1 50 mg/kg intraperitoneal on alternating days for 14 days; versus DMSO. The method, then:
FIGS. 10A-10C. JQ1 regulates lnc-HLX-2-7 via MYC in vivo. (FIG. 10A) D425 Med and MED211 cells expressing luciferase were implanted into the […] of NOD-SCID mice. Seven days after injection, mice were administered DMSO or JQ1. Tumor formation was assessed by bioluminescence imaging. Changes in bioluminescent signal were examined weekly after tumor implantation. (FIG. 10B) Quantification of total photon counts from mice treated with JQ1 or DMSO. n=4, *p<0.05, Student’s t-test. (FIG. 10C) Expression levels of MYC and lnc-HLX-2-7 were examined by qPCR in DMSO or JQ1-treated mouse xenografts. Relative expression levels compared to those in the DMSO-treated tumor are indicated on the y-axis (n=4). Error bars indicate s.e.m. n=4, *p<0.01, Student’s t-test.
Medulloblastoma Xenografts (Intracranial). All mouse studies were approved and performed in accordance with the policies and regulations of the Animal Care and Use Committee of Johns Hopkins University. Intracranial MB xenografts were established by injecting D425 Med cells, MED211 cells, D425 Med cells with lnc- HLX-2-7 deleted, and MED211 cells with lnc-HLX-2-7 deleted into the cerebellums of NOD-SCID mice (Jackson Laboratory). […] Tumor growth was evaluated by weekly bioluminescence imaging using an in vivo spectral imaging system (IVIS Lumina II, Xenogen).

Regarding “+T^∗+G^∗+A^∗G^∗A^∗G^∗A^∗T^∗T^∗A^∗A^∗T^∗C^∗T^∗A^∗G^∗A^∗T^∗+T^∗+G^∗+C (TGAGAGATTAATCTAGATTGC; sugars from the 5' end l3 d15 l3, all phosphorothioate, methylation of C not given here) [ASO-lnc-HLX-2-7]”, the lnc-HLX-2-7 expression result in the data set on lnc-HLX-2-7 [1] is given as “significantly decreased”. Further, the “MB cell growth (viable cell numbers)” value in data set [2] (72 hours after ASO transfection, P < 0.01) is listed as “significantly suppressed”. For the same compound, the “apoptosis (apoptotic cell numbers)” value in data set [3] is “induced apoptosis”. Besides, the HLX expression entry with HLX was “significantly reduced”.
Regarding `Cc1sc2c(c1C)C(c1ccc(Cl)cc1)=N[C@@H](CC(=O)OC(C)(C)C)c1nnc(C)n1-2` [JQ1, Jun Qi 1 (JQ1)], in data set [2] (effect suppressed by overexpression of lnc-HLX-2-7 (pcDNA4-lnc-HLX-2-7)), the “cell growth (viable cell numbers) with JQ1” value is “cell growth inhibition”. In addition, the MYC expression result in the data set with MYC was “downregulated”. The lnc-HLX-2-7 expression result in the data set with lnc-HLX-2-7 [4] was “downregulated”. Besides, in data set [5], the “lnc-HLX-2-7 expression in xenograft tumors” value was “downregulation”.
